Article PMC6934184, “Selective DNA-PKcs inhibition extends the therapeutic index of localized radiotherapy and chemotherapy” (The Journal of Clinical Investigation, 2019)

Target: T1, MAPK1 (ERK2) (Homo sapiens, UniProt P28482)
T1 construct: purchased Thermo Fisher Scientific (Life Technologies) SelectScreen
Test: SelectScreen Z'LYTE
Type: biochemical
Method in brief: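 SelectScreen broad panel; activity (Z'LYTE, Adapta) plus binding formats. ATP: Km app for CSF1R Z'LYTE; 10 for CAMK1 Adapta. Readout = % per kinase.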

T1 sequence (P28482 whole entry): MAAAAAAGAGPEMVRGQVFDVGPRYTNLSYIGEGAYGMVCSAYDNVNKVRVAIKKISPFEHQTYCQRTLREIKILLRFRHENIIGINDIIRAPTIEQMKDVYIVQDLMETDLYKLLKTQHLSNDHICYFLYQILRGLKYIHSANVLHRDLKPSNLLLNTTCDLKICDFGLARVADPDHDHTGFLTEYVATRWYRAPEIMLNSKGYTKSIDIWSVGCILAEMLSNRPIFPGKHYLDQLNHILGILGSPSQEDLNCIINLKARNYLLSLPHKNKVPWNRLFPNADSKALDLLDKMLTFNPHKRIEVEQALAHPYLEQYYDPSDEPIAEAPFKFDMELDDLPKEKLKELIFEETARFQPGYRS

SMILES: CN(C(=O)CN1CCOCC1)c1ccc2sc3c(-c4cccc5c(=O)cc(N6CC7CCC(C6)O7)oc45)cccc3c2c1 [NU5455]
- inhibition at 1 µM: 10.1%
